For assay [1], the target named is T1, Tyrosine-protein phosphatase non-receptor type 7 (Homo sapiens, UniProt P35236).
T1 sequence (P35236 whole entry): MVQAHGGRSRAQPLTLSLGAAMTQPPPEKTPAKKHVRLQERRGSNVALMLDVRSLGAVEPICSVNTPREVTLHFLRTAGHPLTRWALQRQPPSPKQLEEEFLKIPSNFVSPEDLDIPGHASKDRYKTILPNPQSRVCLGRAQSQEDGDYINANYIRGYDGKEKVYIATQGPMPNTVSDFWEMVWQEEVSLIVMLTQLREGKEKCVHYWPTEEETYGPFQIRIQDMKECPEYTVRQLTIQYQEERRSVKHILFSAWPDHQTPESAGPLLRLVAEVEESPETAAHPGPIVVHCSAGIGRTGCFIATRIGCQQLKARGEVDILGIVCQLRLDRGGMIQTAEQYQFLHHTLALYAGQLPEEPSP
In words: inhibition of hematopoietic tyrosine phosphatase HePTP – biochemical, set 2, SAR follow-up (AID 449736). In kind it is functional.

Assay [2] concerns the target T2, Tyrosine-protein phosphatase non-receptor type 22 (Homo sapiens, UniProt Q9Y2R2).
T2 sequence (Q9Y2R2 whole entry): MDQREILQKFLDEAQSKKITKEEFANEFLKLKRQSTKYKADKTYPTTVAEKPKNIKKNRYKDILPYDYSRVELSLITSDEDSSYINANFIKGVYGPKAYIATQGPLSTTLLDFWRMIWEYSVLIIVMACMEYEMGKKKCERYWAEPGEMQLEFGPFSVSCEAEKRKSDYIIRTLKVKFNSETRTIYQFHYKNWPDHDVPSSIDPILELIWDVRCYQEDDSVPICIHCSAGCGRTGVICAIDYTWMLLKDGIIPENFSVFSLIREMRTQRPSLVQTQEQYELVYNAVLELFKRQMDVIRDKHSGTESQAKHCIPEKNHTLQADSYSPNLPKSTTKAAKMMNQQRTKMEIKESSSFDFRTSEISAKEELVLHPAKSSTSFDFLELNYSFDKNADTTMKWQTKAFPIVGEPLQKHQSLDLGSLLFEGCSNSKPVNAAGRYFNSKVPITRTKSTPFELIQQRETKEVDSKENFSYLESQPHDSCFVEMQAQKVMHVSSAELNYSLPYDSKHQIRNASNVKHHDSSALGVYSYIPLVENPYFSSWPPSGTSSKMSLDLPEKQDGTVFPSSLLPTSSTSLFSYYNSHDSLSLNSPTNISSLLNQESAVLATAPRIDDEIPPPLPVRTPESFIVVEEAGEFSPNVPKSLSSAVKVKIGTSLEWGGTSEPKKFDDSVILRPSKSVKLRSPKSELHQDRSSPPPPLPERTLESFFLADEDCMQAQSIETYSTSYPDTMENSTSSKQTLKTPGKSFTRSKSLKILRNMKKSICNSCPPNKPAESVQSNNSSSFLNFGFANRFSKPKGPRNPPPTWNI
In words: SAR LYP1 Fluorescent Assay using OMFP substrate for In Vitro dose response studies - Set 2. [Related pubchem assays (depositor defined):AID1779, AID1784, AID2140, AID449726, AID488869]. In kind it is functional.

Assay [3] concerns the target T2, Tyrosine-protein phosphatase non-receptor type 22. In words: SAR LYP1 Fluorescent Assay using pCAP substrate for In Vitro dose response studies - Set 2. [Related pubchem assays (depositor defined):AID1779, AID1784, AID2135, AID449727]. In kind it is functional.
Assay [4] shares this target. Description: PubChem AID 2135.
Assay [5] has the same target. In words: inhibition of lymphoid tyrosine phosphatase LYP – biochemical, pCAP fluorogenic substrate, fluorescence, set 3, SAR follow-up (AID 449727). In kind it is functional.
The target is the same in assay [6]. Description: PubChem AID 2140.
Assay [7] shares this target. Description: SAR LYP1 Fluorescent Assay using OMFP substrate for In Vitro dose response studies - Set 3. [Related pubchem assays (depositor defined):AID1779, AID1784, AID2140, AID2686]. In kind it is functional.
For assay [8], the target named is Tyrosine-protein phosphatase non-receptor type 12 (Homo sapiens, UniProt Q05209). In words: SAR Selectivity Analysis of small molecule inhibitors of PEST using pCAP in a fluorescence assay. [Related pubchem assays (depositor defined):AID1779, AID1784, AID2135]. In kind it is functional.
The target of assay [9] is T3, E3 ubiquitin-protein ligase XIAP (Homo sapiens, UniProt P98170). Description: SAR analysis of Antagonists of IAP-family anti-apoptotic proteins. [Related pubchem assays (depositor defined):AID1018, AID1449, AID1513, AID1514, AID1638].
Assay [10] deals with T3, E3 ubiquitin-protein ligase XIAP. Description: SAR analysis of Antagonists of XIAP-Bir3 domain of IAP-family anti-apoptotic proteins. [Related pubchem assays (depositor defined):AID1018, AID1449, AID1513, AID1514, AID1638].
Assay [11] deals with T4, Heat shock factor protein 1 (Mus musculus, UniProt P38532).
T4 sequence (P38532 whole entry): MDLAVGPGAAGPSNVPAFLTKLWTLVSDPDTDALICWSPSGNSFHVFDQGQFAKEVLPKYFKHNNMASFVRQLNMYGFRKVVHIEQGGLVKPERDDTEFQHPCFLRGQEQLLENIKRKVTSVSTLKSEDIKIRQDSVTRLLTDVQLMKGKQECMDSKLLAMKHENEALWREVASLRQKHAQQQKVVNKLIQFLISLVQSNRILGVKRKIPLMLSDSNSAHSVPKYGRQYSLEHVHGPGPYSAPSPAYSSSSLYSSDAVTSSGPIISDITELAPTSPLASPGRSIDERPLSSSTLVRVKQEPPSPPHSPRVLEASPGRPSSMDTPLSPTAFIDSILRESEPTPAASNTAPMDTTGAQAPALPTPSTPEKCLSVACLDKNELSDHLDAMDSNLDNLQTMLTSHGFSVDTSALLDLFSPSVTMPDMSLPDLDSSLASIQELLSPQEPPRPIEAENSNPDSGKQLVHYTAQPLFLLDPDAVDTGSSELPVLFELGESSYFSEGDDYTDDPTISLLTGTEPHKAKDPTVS
Description: enhancement of HSF1-driven luciferase signal – cell-based, NIH3T3, luminescence, dose retest, confirmation (AID 435004).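 Note: stress induced by proteasome inhibitor MG132 added 30 min after compound; luciferase reporter driven by HSF1 response element in NIH3T3 cells; actives raise luminescence as potentiators of the MG132 stress response.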 In kind it is functional.

Assay [12] concerns the target Genome polyprotein (dengue virus type 2, UniProt P29990). Description: flavivirus cap methylation enzyme inhibition – biochemical, confirmation dose response, primary screen (AID 588689). In kind it is functional.
In assay [13] the target is T5, Runt-related transcription factor 1/Core-binding factor subunit beta (Homo sapiens, UniProt Q01196+Q13951). Description: Confirmation of compounds inhibiting the binding between the RUNX1 Runt domain and CBFb-SMMHC via a fluorescence resonance energy transfer (FRET) assay. [Related pubchem assays (depositor defined):AID1434, AID1438, AID1496, AID1550, AID1645]. In kind it is protein assay.

For assay [14], the target named is T5, Runt-related transcription factor 1/Core-binding factor subunit beta. Description: Confirmation of compounds inhibiting the binding between the RUNX1 Runt domain and CBFb-SMMHC via a time resolved fluorescence resonance energy transfer (TR-FRET) assay. [Related pubchem assays (depositor defined):AID1434, AID1438, AID1496, AID1560, AID1645]. In kind it is protein assay.

Assay [15] addresses G-protein coupled receptor 55 (Homo sapiens, UniProt Q9Y2T6). Description: selective activators of receptor GPR55 – imaging, U2OS cells, beta-arrestin-GFP redistribution, primary screen (AID 1961). In kind it is functional.
For assay [16], the target named is T5, Runt-related transcription factor 1/Core-binding factor subunit beta. Description: Runt domain/CBFb-SMMHC interaction disruptors – biochemical, TR-FRET (AID 1438). In kind it is protein assay.
For assay [17] the target is unchanged. Description: disruptors of Runt domain/CBFb-SMMHC interaction – biochemical, FRET, Cerulean-Runt, Venus-CBFb-SMMHC, uHTS, […] (AID 1434). In kind it is protein assay.
Assay [18] deals with Heat shock protein HSP 90-alpha (Homo sapiens, UniProt P07900). In kind it is functional, organism-based.
Assay [19] has as its target Sphingosine 1-phosphate receptor 5 (Homo sapiens, UniProt Q9H228). In words: Late-stage fluorescence-based dose-response cell-based assay to identify agonists of the Sphingosine 1-Phosphate Receptor 4 (S1P4): Sphingosine 1-Phosphate Receptor 5 (S1P5) counterscreen assay. [Related pubchem assays (depositor defined):AID1509, AID1523, AID1563, AID1686, AID1701, AID1801, AID463107, AID463225, AID504400]. In kind it is functional.

Assay [20] deals with Sphingosine 1-phosphate receptor 2 (Homo sapiens, UniProt O95136). In words: Late-stage fluorescence-based dose-response cell-based assay to identify agonists of the Sphingosine 1-Phosphate Receptor 4 (S1P4): Sphingosine 1-Phosphate Receptor 2 (S1P2) counterscreen assay. [Related pubchem assays (depositor defined):AID1509, AID1523, AID1563, AID1686, AID1701, AID1801, AID463107, AID463225, AID504400]. In kind it is functional.

Assay [21] concerns the target Sphingosine 1-phosphate receptor 1 (Homo sapiens, UniProt P21453). In words: Late-stage fluorescence-based dose-response cell-based assay to identify agonists of the Sphingosine 1-Phosphate Receptor 4 (S1P4): Sphingosine 1-Phosphate Receptor 1 (S1P1) counterscreen assay. [Related pubchem assays (depositor defined):AID1509, AID1523, AID1563, AID1686, AID1701, AID1801, AID463107, AID463225, AID504400]. In kind it is functional.

For assay [22], the target named is Sphingosine 1-phosphate receptor 3 (Homo sapiens, UniProt Q99500). In words: Late-stage fluorescence-based dose-response cell-based assay to identify agonists of the Sphingosine 1-Phosphate Receptor 4 (S1P4): Sphingosine 1-Phosphate Receptor 3 (S1P3) counterscreen assay. [Related pubchem assays (depositor defined):AID1509, AID1523, AID1563, AID1686, AID1701, AID1801, AID463107, AID463225, AID504400]. In kind it is functional.

Assay [23] has as its target T6, Kappa-type opioid receptor (Homo sapiens, UniProt P41145). In words: SAR analysis of small molecule antagonists of the kappa opioid receptor via a luminescent beta-arrestin assay - Set 4. [Related pubchem assays (depositor defined):AID1777, AID1778, AID1785, AID1786, AID1966, AID2133, AID2136, AID2285]. In kind it is functional.
Assay [24] concerns the target T6, Kappa-type opioid receptor. Description: SAR analysis of small molecule antagonists of the kappa opioid receptor via a luminescent beta-arrestin assay - Set 5. [Related pubchem assays (depositor defined):AID1778, AID1785]. In kind it is functional.
Assay [25] has as its target Peroxisome proliferator-activated receptor gamma (Homo sapiens, UniProt P37231). In words: PPARg transcriptional activation, reporter cells – cell-based, luminescence, assay provider, dose response (AID 504447). In kind it is functional.

Activity calls are given as the source filed them. Unless noted, no cut-off for these calls is given here.

T5 sequence (Q01196 whole entry, the tested form may be a part): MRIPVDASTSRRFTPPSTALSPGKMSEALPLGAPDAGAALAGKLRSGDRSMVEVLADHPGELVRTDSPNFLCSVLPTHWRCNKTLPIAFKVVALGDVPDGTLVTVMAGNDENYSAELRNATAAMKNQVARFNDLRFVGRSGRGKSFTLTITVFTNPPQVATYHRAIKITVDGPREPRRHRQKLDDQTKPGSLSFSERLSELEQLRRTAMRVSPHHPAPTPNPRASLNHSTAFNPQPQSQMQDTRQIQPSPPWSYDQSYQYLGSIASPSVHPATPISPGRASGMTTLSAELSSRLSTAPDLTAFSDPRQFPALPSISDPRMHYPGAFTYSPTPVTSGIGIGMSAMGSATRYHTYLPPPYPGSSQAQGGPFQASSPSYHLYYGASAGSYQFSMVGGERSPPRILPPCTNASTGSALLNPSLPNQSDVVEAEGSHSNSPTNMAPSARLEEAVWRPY
T5 sequence (Q13951 whole entry, the tested form may be a part): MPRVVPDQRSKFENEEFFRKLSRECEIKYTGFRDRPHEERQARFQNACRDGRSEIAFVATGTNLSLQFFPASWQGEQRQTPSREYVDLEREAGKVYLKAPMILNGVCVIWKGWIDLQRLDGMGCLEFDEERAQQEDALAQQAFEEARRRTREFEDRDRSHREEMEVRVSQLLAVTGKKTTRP
T6 sequence (P41145 whole entry): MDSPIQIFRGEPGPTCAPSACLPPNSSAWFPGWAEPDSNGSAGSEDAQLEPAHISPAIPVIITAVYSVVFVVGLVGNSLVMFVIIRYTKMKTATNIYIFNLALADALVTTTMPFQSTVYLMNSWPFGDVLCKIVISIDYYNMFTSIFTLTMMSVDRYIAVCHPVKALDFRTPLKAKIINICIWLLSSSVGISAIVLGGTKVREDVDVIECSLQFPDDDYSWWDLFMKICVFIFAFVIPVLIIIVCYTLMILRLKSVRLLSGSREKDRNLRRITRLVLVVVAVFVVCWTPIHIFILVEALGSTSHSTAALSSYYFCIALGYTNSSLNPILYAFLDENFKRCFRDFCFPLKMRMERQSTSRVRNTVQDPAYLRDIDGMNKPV
T3 sequence (P98170 whole entry, the tested form may be a part): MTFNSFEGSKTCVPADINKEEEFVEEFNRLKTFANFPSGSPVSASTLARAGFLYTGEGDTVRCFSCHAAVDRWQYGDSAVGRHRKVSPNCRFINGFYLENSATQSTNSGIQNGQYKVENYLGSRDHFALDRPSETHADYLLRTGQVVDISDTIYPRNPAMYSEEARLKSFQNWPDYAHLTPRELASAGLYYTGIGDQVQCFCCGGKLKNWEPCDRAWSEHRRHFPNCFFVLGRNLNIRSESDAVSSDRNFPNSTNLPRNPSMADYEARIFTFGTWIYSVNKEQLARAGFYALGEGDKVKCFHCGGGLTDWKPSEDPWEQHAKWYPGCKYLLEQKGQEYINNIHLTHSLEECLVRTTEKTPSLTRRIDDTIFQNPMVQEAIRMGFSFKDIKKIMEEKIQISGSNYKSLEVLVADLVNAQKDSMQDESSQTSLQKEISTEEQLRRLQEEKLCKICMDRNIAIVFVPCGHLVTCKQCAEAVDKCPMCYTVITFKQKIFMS
Sphingosine 1-phosphate receptor 5, sequence (Q9H228 whole entry): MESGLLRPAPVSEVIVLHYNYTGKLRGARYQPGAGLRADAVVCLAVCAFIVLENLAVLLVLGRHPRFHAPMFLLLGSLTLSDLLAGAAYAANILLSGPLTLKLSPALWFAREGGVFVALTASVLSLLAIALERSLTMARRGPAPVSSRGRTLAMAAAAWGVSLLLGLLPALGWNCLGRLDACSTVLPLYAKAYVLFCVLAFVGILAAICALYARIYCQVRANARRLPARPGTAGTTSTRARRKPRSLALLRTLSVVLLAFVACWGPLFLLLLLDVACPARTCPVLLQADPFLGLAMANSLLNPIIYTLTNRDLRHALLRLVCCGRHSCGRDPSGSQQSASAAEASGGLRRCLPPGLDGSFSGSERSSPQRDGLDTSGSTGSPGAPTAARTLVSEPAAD
Sphingosine 1-phosphate receptor 3, sequence (Q99500 whole entry): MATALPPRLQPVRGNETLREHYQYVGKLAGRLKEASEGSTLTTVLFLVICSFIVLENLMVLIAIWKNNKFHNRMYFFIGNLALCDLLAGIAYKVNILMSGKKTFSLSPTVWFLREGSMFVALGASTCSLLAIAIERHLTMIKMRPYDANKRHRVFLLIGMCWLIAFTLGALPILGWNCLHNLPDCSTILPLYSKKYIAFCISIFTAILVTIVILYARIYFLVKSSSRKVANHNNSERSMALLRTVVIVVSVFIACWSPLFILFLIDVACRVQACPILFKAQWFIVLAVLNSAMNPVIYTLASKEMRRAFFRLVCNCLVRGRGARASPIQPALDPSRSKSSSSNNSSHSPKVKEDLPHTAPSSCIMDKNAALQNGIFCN
Genome polyprotein, sequence (P29990 2492-3391 limits assumed): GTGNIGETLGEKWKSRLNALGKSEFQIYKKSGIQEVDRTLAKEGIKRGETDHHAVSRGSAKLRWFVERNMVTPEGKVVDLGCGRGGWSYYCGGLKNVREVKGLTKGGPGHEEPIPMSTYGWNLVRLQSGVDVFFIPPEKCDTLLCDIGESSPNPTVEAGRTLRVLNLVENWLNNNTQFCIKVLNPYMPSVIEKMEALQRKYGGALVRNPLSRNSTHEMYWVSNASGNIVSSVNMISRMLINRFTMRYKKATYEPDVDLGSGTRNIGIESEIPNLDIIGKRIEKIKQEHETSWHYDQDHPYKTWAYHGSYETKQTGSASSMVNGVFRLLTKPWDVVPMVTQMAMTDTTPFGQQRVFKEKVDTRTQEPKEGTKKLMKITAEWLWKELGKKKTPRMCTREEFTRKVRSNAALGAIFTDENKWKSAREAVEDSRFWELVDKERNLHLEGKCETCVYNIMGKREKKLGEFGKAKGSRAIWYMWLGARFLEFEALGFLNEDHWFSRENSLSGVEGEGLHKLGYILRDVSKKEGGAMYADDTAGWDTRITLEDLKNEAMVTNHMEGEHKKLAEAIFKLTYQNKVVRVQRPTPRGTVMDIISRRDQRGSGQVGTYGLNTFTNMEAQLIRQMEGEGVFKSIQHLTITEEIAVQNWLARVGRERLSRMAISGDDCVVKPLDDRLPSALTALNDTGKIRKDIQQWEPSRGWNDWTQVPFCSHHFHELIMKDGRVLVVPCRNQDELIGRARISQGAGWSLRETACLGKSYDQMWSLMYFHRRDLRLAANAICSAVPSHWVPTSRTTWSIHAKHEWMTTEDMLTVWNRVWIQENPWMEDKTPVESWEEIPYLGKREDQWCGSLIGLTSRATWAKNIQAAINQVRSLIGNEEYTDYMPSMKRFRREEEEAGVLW
Sphingosine 1-phosphate receptor 1, sequence (P21453 whole entry): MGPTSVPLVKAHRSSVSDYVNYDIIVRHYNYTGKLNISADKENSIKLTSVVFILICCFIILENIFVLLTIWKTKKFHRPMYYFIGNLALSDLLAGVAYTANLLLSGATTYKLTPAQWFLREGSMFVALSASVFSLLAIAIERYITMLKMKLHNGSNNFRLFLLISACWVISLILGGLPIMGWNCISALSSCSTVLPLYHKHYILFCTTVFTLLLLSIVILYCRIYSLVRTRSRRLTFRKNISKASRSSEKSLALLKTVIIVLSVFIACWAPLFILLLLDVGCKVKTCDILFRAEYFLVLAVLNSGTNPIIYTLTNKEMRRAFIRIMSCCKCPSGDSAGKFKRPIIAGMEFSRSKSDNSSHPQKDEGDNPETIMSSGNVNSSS
Peroxisome proliferator-activated receptor gamma, sequence (P37231 whole entry): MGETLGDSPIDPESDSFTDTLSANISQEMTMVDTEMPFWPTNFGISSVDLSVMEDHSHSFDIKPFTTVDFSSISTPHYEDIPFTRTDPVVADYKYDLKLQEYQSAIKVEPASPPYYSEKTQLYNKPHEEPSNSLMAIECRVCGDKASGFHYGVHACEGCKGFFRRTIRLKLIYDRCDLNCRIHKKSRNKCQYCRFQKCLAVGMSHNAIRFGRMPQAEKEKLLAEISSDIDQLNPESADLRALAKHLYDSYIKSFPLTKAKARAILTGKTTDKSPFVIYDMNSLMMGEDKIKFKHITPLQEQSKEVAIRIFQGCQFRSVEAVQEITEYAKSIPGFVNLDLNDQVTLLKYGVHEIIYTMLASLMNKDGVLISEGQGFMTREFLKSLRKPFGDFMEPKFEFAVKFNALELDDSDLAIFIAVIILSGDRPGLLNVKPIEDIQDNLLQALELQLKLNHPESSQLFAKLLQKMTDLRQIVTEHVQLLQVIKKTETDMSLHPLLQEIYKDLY
G-protein coupled receptor 55, sequence (Q9Y2T6 whole entry, the tested form may be a part): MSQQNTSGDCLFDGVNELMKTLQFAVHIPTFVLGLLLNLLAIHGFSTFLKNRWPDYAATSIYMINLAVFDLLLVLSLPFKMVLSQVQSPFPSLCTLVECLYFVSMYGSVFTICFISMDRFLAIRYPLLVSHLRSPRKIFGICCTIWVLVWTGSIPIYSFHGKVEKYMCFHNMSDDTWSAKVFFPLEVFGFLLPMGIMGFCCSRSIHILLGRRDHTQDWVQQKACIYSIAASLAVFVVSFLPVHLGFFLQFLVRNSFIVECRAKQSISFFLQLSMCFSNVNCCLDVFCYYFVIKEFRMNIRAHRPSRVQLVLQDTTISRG
Sphingosine 1-phosphate receptor 2, sequence (O95136 whole entry): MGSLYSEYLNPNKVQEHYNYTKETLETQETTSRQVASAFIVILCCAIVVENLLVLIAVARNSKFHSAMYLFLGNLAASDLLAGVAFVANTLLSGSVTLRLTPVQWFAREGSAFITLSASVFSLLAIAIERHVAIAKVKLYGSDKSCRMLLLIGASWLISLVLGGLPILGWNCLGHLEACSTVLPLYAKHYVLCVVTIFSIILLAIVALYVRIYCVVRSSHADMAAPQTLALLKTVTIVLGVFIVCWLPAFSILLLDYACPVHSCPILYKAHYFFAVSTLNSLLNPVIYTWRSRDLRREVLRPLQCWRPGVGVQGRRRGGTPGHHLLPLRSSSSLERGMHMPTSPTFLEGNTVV

Turning to `N#C/C(=C/c1ccc(OCc2cccc(C(=O)O)c2)c(Cl)c1)c1cccc(F)c1`, the IC50 was 4.78 µM (active) in assay [1]; 99.1 µM (active) in [2]; > 100 µM (inactive) in assay [3]; > 100 µM (inactive) in [4]; > 100 µM (inactive) in assay [5]; > 100 µM (inactive) in assay [6]. For the same molecule, the IC50 in assay [7] was > 100 µM (inactive); in assay [8], 17 µM (active).

Regarding `CN[C@@H](C)C(=O)NC1CCCN([C@@H](C)C(=O)Nc2ccc3ccccc3c2)C1=O` (stereo not given in full), the IC50 in assay [9] and in assay [10] was > 100 µM (inactive) each time.

Consider `O=C1C=CC(=O)N1N(c1ccccc1)c1ccccc1`, for which the EC50 in [11] was 4.95 µM (active); in assay [15] it was > 32 µM (inactive). For the same molecule, the IC50 is 41.6 µM (active) in [12]; 10.3 µM (active) in [13]; 16.5 µM (active) in assay [14]; 21.4 µM (active) in assay [16]; 10.1 µM (active) in assay [17]. In assay [18], the AC50 is 4.16 µM (active).

Turning to `FCc1ccc(OCCOc2ccc(Cl)cc2Cl)c(Cl)n1`, the EC50 in assay [19], in [20], in assay [21] and in [22] was > 50 µM (inactive) in each case.

For `Cc1ccc(N2CCN(CCCNC(=O)Cn3c(=O)c4cccn4c4cc(Br)cnc43)CC2)cc1`, the IC50 is 9.68 µM (active) in assay [23] and 3.86 µM (active) in assay [24].

For the molecule `CN1CCN(S(=O)(=O)c2ccc(Sc3nc4ccccc4[nH]3)c3nsnc23)CC1`, the EC50 in [25] was 7.6 µM (active).

Source of the values: ChEMBL document CHEMBL1201862, “PubChem BioAssay data set” (2004).
